Consider 19 compounds from patent EP4755888A1 (ILAb Co., Ltd., priority 2023, dated 2025).

Each structure is given as a SMILES string.

This test has as its target PD-1/PD-L1 (Homo sapiens, UniProt Q9NZQ7). Description: TR-FRET PD-1/PD-L1 binding inhibition at the molecular level (free proteins). The conditions noted are these: Tag1-PD-L1 and Tag2-PD-1 proteins, twelve concentrations from 200 nM, 2 hours at room temperature, read-out: FRET assay (IC50). Put shortly:
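HTRF read-out at 665/620 nm after 2 h at room temperature. Detection used anti-Tag1 Eu cryptate plus anti-Tag2 XL665 antibodies. Tagged PD-L1 and PD-1 proteins were pre-mixed with compound across twelve […] 1:2 dilutions starting at 200 nM.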

PD-1/PD-L1, sequence (Q9NZQ7 19-238 limits assumed): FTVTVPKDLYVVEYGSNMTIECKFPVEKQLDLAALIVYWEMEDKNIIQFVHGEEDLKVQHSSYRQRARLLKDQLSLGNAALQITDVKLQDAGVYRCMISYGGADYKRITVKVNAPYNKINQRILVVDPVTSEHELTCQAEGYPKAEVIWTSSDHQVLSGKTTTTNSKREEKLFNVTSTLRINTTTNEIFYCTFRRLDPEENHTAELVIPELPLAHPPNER

As usually defined, the IC50 is the point on the concentration scale where inhibition reaches its midpoint. On to `Cc1c(NC(=O)c2cc3n(n2)CCCC3N2CCC(C(=O)O)CC2)cccc1-c1cccc(Nc2nc(C(F)F)nc3cc(CN4CC[C@@H](O)C4)cnc23)c1C` (stereo partly drawn) [Compound 136, 1-(2-((3'-((2-(difluoromethyl)-7-(((R)-3-hydroxypyrrolidin-1-yl)methyl)pyrido[3,2-d]pyrimidin-4-yl)amino)-2,2'-dimethyl-[1,1'-biphenyl]-3-yl)carbamoyl)-4,5,6,7-tetrahydropyrazolo[1,5-a]pyridin-4-yl)piperidine-4-carboxylic acid], for which the IC50 is less than 10 nM.
With `Cc1c(NC(=O)c2cc3n(n2)CCCC3NC(C)(C)C(=O)O)cccc1-c1cccc(Nc2nc(C(F)F)nc3cc(CN4CC[C@@H](O)C4)cnc23)c1C` (stereo partly drawn) [Compound 137, 2-((2-((3'-((2-(difluoromethyl)-7-(((R)-3-hydroxypyrrolidin-1-yl)methyl)pyrido[3,2-d]pyrimidin-4-yl)amino)-2,2'-dimethyl-[1,1'-biphenyl]-3-yl)carbamoyl)-4,5,6,7-tetrahydropyrazolo[1,5-a]pyridin-4-yl)amino)-2-methylpropanoic acid] the figure was less than 10 nM; with `O=C(Nc1cccc(-c2cccc(Nc3nc(C(F)F)nc4cc(CN5CC[C@@H](O)C5)cnc34)c2Cl)c1Cl)c1cc2n(n1)CCCC2O` (stereo partly drawn) [Compound 138, N-(2,2'-dichloro-3'-((2-(difluoromethyl)-7-(((R)-3-hydroxypyrrolidin-1-yl)methyl)pyrido[3,2-d]pyrimidin-4-yl)amino)-[1,1'-biphenyl]-3-yl)-4-hydroxy-4,5,6,7-tetrahydropyrazolo[1,5-a]pyridine-2-carboxamide], 10 to 100 nM; with `CC(=O)NCCNC1CCCn2nc(C(=O)Nc3cccc(-c4cccc(Nc5nc(C(F)F)nc6cc(CN7CC[C@@H](O)C7)cnc56)c4Cl)c3Cl)cc21` (stereo partly drawn) [Compound 139, 4-((2-acetamidoethyl)amino)-N-(2,2'-dichloro-3'-((2-(difluoromethyl)-7-(((R)-3-hydroxypyrrolidin-1-yl)methyl)pyrido[3,2-d]pyrimidin-4-yl)amino)-[1,1'-biphenyl]-3-yl)-4,5,6,7-tetrahydropyrazolo[1,5-a]pyridine-2-carboxamide], 10 to 100 nM.
As for `O=C(Nc1cccc(-c2cccc(Nc3nc(C(F)F)nc4cc(CN5CC[C@@H](O)C5)cnc34)c2Cl)c1Cl)c1cc2n(n1)CCCC2N1CC[C@@H](O)C1` (stereo partly drawn) [Compound 140, N-(2,2'-dichloro-3'-((2-(difluoromethyl)-7-(((R)-3-hydroxypyrrolidin-1-yl)methyl)pyrido[3,2-d]pyrimidin-4-yl)amino)-[1,1'-biphenyl]-3-yl)-4-((R)-3-hydroxypyrrolidin-1-yl)-4,5,6,7-tetrahydropyrazolo[1,5-a]pyridine-2-carboxamide], the IC50 is 10 to 100 nM.
Under `O=C(Nc1cccc(-c2cccc(Nc3nc(C(F)F)nc4cc(CN5CC[C@@H](O)C5)cnc34)c2Cl)c1Cl)c1cc2n(n1)CCCC2NCCO` (stereo partly drawn) [Compound 141, N-(2,2'-dichloro-3'-((2-(difluoromethyl)-7-(((R)-3-hydroxypyrrolidin-1-yl)methyl)pyrido[3,2-d]pyrimidin-4-yl)amino)-[1,1'-biphenyl]-3-yl)-4-((2-hydroxyethyl)amino)-4,5,6,7-tetrahydropyrazolo[1,5-a]pyridine-2-carboxamide] stands 10 to 100 nM; under `O=C(Nc1cccc(-c2cccc(Nc3nc(C(F)F)nc4cc(CN5CC[C@@H](O)C5)cnc34)c2Cl)c1Cl)c1cc2n(n1)CCCC2N1CC[C@@H](C(=O)O)C1` (stereo partly drawn) [Compound 142, (3R)-1-(2-((2,2'-dichloro-3'-((2-(difluoromethyl)-7-(((R)-3-hydroxypyrrolidin-1-yl)methyl)pyrido[3,2-d]pyrimidin-4-yl)amino)-[1,1'-biphenyl]-3-yl)carbamoyl)-4,5,6,7-tetrahydropyrazolo[1,5-a]pyridin-4-yl)pyrrolidine-3-carboxylic acid], less than 10 nM.
Regarding `O=C(O)CNC1CCCn2nc(C(=O)Nc3cccc(-c4cccc(Nc5nc(C(F)F)nc6cc(CN7CC[C@@H](O)C7)cnc56)c4Cl)c3Cl)cc21` (stereo partly drawn) [Compound 143, 2-((2-((2,2'-dichloro-3'-((2-(difluoromethyl)-7-(((R)-3-hydroxypyrrolidin-1-yl)methyl)pyrido[3,2-d]pyrimidin-4-yl)amino)-[1,1'-biphenyl]-3-yl)carbamoyl)-4,5,6,7-tetrahydropyrazolo[1,5-a]pyridin-4-yl)amino)acetic acid], the IC50 was less than 10 nM.
Regarding `O=C(Nc1cccc(-c2cccc(Nc3nc(C(F)F)nc4cc(CN5CC[C@@H](O)C5)cnc34)c2Cl)c1Cl)c1cc2n(n1)CCCC2N1CCC(O)CC1` (stereo partly drawn) [Compound 144, N-(2,2'-dichloro-3'-((2-(difluoromethyl)-7-(((R)-3-hydroxypyrrolidin-1-yl)methyl)pyrido[3,2-d]pyrimidin-4-yl)amino)-[1,1'-biphenyl]-3-yl)-4-(4-hydroxypiperidin-1-yl)-4,5,6,7-tetrahydropyrazolo[1,5-a]pyridine-2-carboxamide], the concentration for half-maximal inhibition (IC50) fell in the range of 10 to 100 nM.
Take `O=C(Nc1cccc(-c2cccc(Nc3nc(C(F)F)nc4cc(CN5CC[C@@H](O)C5)cnc34)c2Cl)c1Cl)c1cc2n(n1)CCCC2N1CCC(C(=O)O)CC1` (stereo partly drawn) [Compound 145, 1-(2-((2,2'-dichloro-3'-((2-(difluoromethyl)-7-({(R)-3-hydroxypyrrolidin-1-yl)methyl)pyrido[3,2-d]pyrimidin-4-yl)amino)-[1,1'-biphenyl]-3-yl)carbamoyl)-4,5,6,7-tetrahydropyrazolo[1,5-a]pyridin-4-yl)piperidine-4-carboxylic acid]: the IC50 is less than 10 nM.
Under `CC(C)(NC1CCCn2nc(C(=O)Nc3cccc(-c4cccc(Nc5nc(C(F)F)nc6cc(CN7CC[C@@H](O)C7)cnc56)c4Cl)c3Cl)cc21)C(=O)O` (stereo partly drawn) [Compound 146, 2-((2-((2,2'-dichloro-3'-((2-(difluoromethyl)-7-(((R)-3-hydroxypyrrolidin-1-yl)methyl)pyrido[3,2-d]pyrimidin-4-yl)amino)-[1,1'-biphenyl]-3-yl)carbamoyl)-4,5,6,7-tetrahydropyrazolo[1,5-a]pyridin-4-yl)amino)-2-methylpropanoic acid] stands less than 10 nM.
Under `Cc1c(NC(=O)c2cc3n(n2)CCCC3NCCO)cccc1-c1cccc(NC(=O)c2nc3c(s2)CN(C)CC3)c1C` (stereo not shown) [Compound 147, N-(3'-(4-((2-hydroxyethyl)amino)-4,5,6,7-tetrahydropyrazolo[1,5-a]pyridine-2-carboxamido)-2,2'-dimethyl-[1,1'-biphenyl]-3-yl)-5-methyl-4,5,6,7-tetrahydrothiazolo[5,4-c]pyridine-2-carboxamide] stands less than 10 nM; under `CC(=O)NCCNC1CCCn2nc(C(=O)Nc3cccc(-c4cccc(NC(=O)c5nc6c(s5)CN(C)CC6)c4C)c3C)cc21` (stereo not shown) [Compound 148, N-(3'-(4-((2-acetamidoethyl)amino)-4,5,6,7-tetrahydropyrazolo[1,5-a]pyridine-2-carboxamido)-2,2'-dimethyl-[1,1'-biphenyl]-3-yl)-5-methyl-4,5,6,7-tetrahydrothiazolo[5,4-c]pyridine-2-carboxamide], less than 10 nM; under `Cc1c(NC(=O)c2cc3n(n2)CCCC3NCC(=O)O)cccc1-c1cccc(NC(=O)c2nc3c(s2)CN(C)CC3)c1C` (stereo not shown) [Compound 149, 2-((2-((2,2'-dimethyl-3'-(5-methyl-4,5,6,7-tetrahydrothiazolo[5,4-c]pyridine-2-carboxamido)-[1,1'-biphenyl]-3-yl)carbamoyl)-4,5,6,7-tetrahydropyrazolo[1,5-a]pyridin-4-yl)amino)acetic acid], less than 10 nM.
With `Cc1c(NC(=O)c2cc3n(n2)CCCC3N2CC[C@@H](O)C2)cccc1-c1cccc(NC(=O)c2nc3c(s2)CN(C)CC3)c1C` (stereo partly drawn) [Compound 150, N-(3'-(4-((R)-3-hydroxypyrrolidin-1-yl)-4,5,6,7-tetrahydropyrazolo[1,5-a]pyridine-2-carboxamido)-2,2'-dimethyl-[1,1'-biphenyl]-3-yl)-5-methyl-4,5,6,7-tetrahydrothiazolo[5,4-c]pyridine-2-carboxamide] the figure was less than 10 nM; with `O=C(Nc1cccc(-c2cccc(NC(=O)c3nc4c(s3)CN(CCF)CC4)c2Cl)c1Cl)c1cc2n(n1)CCCC2NCCO` (stereo not shown) [Compound 150-1, N-(2,2'-dichloro-3'-(4-((2-hydroxyethyl)amino)-4,5,6,7-tetrahydropyrazolo[1,5-a]pyridine-2-carboxamido)-[1,1'-biphenyl]-3-yl)-5-(2-fluoroethyl)-4,5,6,7-tetrahydrothiazolo[5,4-c]pyridine-2-carboxamide], less than 10 nM.
Take `O=C(O)CNC1CCCn2nc(C(=O)Nc3cccc(-c4cccc(NC(=O)c5nc6c(s5)CN(CCF)CC6)c4Cl)c3Cl)cc21` (stereo not shown) [Compound 150-2, 2-((2-((2,2'-dichloro-3'-(5-(2-fluoroethyl)-4,5,6,7-tetrahydrothiazolo[5,4-c]pyridine-2-carboxamido)-[1,1'-biphenyl]-3-yl)carbamoyl)-4,5,6,7-tetrahydropyrazolo[1,5-a]pyridin-4-yl)amino)acetic acid]: the IC50 was less than 10 nM.
Turning to `CC(=O)NCCNC1CCCn2nc(C(=O)Nc3cccc(-c4cccc(-c5nc6c(s5)CCN(C)C6)c4C)c3C)cc21` (stereo not shown) [Compound 152, 4-((2-acetamidoethyl)amino)-N-(2,2'-dimethyl-3'-(5-methyl-4,5,6,7-tetrahydrothiazolo[4,5-c]pyridin-2-yl)-[1,1'-biphenyl]-3-yl)-4,5,6,7-tetrahydropyrazolo[1,5-a]pyridine-2-carboxamide], the IC50 was in the range of 10 to 100 nM.
With `Cc1c(NC(=O)c2cc3n(n2)CCCC3NCC(=O)O)cccc1-c1cccc(-c2nc3c(s2)CCN(C)C3)c1C` (stereo not shown) [Compound 153, 2-((2-((2,2'-dimethyl-3'-(5-methyl-4,5,6,7-tetrahydrothiazolo[4,5-c]pyridin-2-yl)-[1,1'-biphenyl]-3-yl)carbamoyl)-4,5,6,7-tetrahydropyrazolo[1,5-a]pyridin-4-yl)amino)acetic acid], the IC50 was less than 10 nM.
